Values joined by “and” are separate entries in the source; they are usually repeats but may differ in a detail not shown here. Equal values may be shown once. Active and inactive are the calls of the source. How the calls were made is not given here.

Test [1] deals with Env-mediated cell-cell fusion, plate reader. Briefly: inhibition of Env-driven cell fusion – HIV entry, plate reader, dry powder, dose response (AID 687023).
Assay in test [2]: as above
The settings on record: Env-mediated cell-cell fusion, plate reader.

For orientation: AC50 means the midpoint of the concentration-response curve, whichever way the signal moves. As to `Nc1nonc1C(=O)NCCNCc1c(OCc2ccccc2F)ccc2ccccc12`, in test [1], the AC50 is 9.38 µM and 3.61 µM.

For the compound `Cc1ccc(C)n1-c1ccc(C(=O)O)c(O)c1`, the activity change, negative = inhibition in test [2] (at 35 µM (top of the series)) was 0.014% (inactive).

In the case of `CCOc1ccc(OCC)c(S(=O)(=O)NCc2ccncc2)c1`, the activity change, negative = inhibition in test [2] (at 3.8 µM (top of the series)) was 30.3% (inactive).

`COC(=O)COc1ccc(S(=O)(=O)NCc2ccncc2)cc1`: in test [2] (at 3.8 µM (top of the series)), the activity change, negative = inhibition was 62.5% (inactive).

Consider `COc1ccc(-c2nn(C)c(=O)c3ccccc23)cc1NC(=O)Cn1nc(C)c2ccccc2c1=O`, for which the AC50 in test [1] is 4.03 µM and 23.5 µM.

In the case of `CCOc1ccc(S(=O)(=O)NCc2ccccn2)cc1`, the activity change, negative = inhibition in test [2] (at 35 µM (top of the series)) is 34.6% (inactive).

On to `Cc1noc(C)c1S(=O)(=O)Nc1cccc2c1O[C@@H](CN(C)Cc1ccc(C(F)(F)F)cc1)[C@H](C)CN([C@H](C)CO)C2=O`, for which the activity change, negative = inhibition in test [2] (at 35 µM (top of the series)) is 15.3% (inactive).

In the case of `CC(C)(C)c1ccc(-c2noc(CCC(=O)NCC3CCCO3)n2)cc1` (stereo unspecified), the concentration at half-maximal activity (AC50) in test [1] was 0.0954 µM and 0.484 µM.

With `COc1ccc(CC(=O)Nc2cccc(S(=O)(=O)N3CCCCCC3)c2)cc1OC`, the AC50 in test [1] is 3.95 µM and 1.88 µM.

For `Cc1ccc(-c2nnc3ccc4c(C(F)(F)F)cc(C(F)(F)F)nc4n23)cc1`, in test [2] (at 1.2 µM (top of the series)), the activity change, negative = inhibition was 38.4% (inactive).

For `CC1(C)CC(NC(=O)C(=O)Nc2ccc(Cl)cc2)CC(C)(C)N1`, the AC50 in test [1] is > 70 µM (inactive) and 27.4 µM.

As to `O=C(CCc1ccc(S(=O)(=O)N2CCOCC2)cc1)Nc1nc(COc2ccccc2)cs1`, the concentration at half-maximal activity (AC50) in test [1] is 3.51 µM and 8.07 µM.

On to `N=C1Sc2ccccc2C2=NCCCN12`, for which, in test [2] (at 35 µM (top of the series)), the activity change, negative = inhibition is 2.5% (inactive).

`Cc1ccc(S(=O)(=O)Nc2cccc3c2O[C@@H](CN(C)Cc2ccc(Cl)c(Cl)c2)[C@@H](C)CN([C@H](C)CO)C3=O)cc1`: the activity change, negative = inhibition in test [2] (at 35 µM (top of the series)) is -87.2% (inactive).

Consider `Cc1noc(C)c1S(=O)(=O)Nc1cccc2c1O[C@@H](CN(C)Cc1ccc(C(F)(F)F)cc1)[C@H](C)CN([C@@H](C)CO)C2=O`, for which the activity change, negative = inhibition in test [2] (at 35 µM (top of the series)) is 56% (inactive).

As for `CCCn1nc(C(=O)Nc2ccc3nc(N4CCOCC4)sc3c2)ccc1=O`, the half-maximal activity concentration (AC50) in test [1] was 4.24 µM and 9.79 µM.

`CCOc1ccc(S(=O)(=O)NC(C)c2ccncc2)cc1` (stereo unspecified): the half-maximal activity concentration (AC50) in test [1] is 1.16 µM and 2.43 µM.

Take `Cc1noc(C)c1S(=O)(=O)Nc1cccc2c1O[C@H](CN(C)Cc1ccc(C(F)(F)F)cc1)[C@@H](C)CN([C@H](C)CO)C2=O`: the activity change, negative = inhibition in test [2] (at 1.2 µM (top of the series)) was 53.5% (inactive).

On to `CCCOc1ccc(S(=O)(=O)NCc2ccncc2)c2ccccc12`, for which the AC50 in test [1] was 0.945 µM and 2.88 µM.

For `COc1ccccc1CCNCc1ccc(OC)c(OCc2ccccc2)c1`, in test [2] (at 35 µM (top of the series)), the activity change, negative = inhibition was -63.1% (inactive).

On to `Oc1ccc(CNc2ccccc2F)c2cccnc12`, for which the activity change, negative = inhibition in test [2] (at 1.2 µM (top of the series)) was 33.1% (inactive).

The values are drawn from PubChem BioAssay AID687023 (Broad Institute, 2013).
